Results published in patent EP3981864A1, “DETERGENT COMPOSITION” (priority 2020, dated 2022).

Legend:
[1] = tested on: Streptomyces avermitilis αDOX (SEQ ID NO: 13), fatty acid alpha-dioxygenase, Q82M86, N-terminal His-tag variant SEQ ID NO: 273 (comparative); assay: Alpha-dioxygenase activity assay (oxygen consumption, TON); type: biochemical; settings: fatty acid 100 µM, enzyme 6 ppm, 50 mM HEPES pH 9.0, 37°C; initial rate of oxygen consumption / enzyme concentration
Excerpt: Streptomyces avermitilis αDOX (SEQ ID NO: 13) is a fatty acid alpha-dioxygenase that converts fatty acids into the corresponding 2-hydroperoxy fatty acids and is included as a comparative example of the present invention. A codon optimized gene (SEQ ID NO: 272) encoding for an alpha-dioxygenase variant (SEQ ID NO: 273), including an N-terminal amino acid sequence containing a His-tag was designed and synthesized by Genscript. After gene synthesis, the protein was expressed and purified. In brief, the complete synthetic gene sequence was subcloned into a pET30a vector using the NdeI/HindIII cloning sites. For heterologous expression, Escherichia coli BL21 (DE3) cells were transformed with the recombinant plasmid and a single colony was inoculated into LB medium containing kanamycin (50 mg/L). A pre-starter culture was then inoculated into flasks containing Magic Media (Thermo Fisher, Catalog # K6803) supplemented with kanamycin (50 mg/L) and incubated at 16 °C for 72 h. At an OD600nm = 0.5 - 1.0, 5-aminolevulinic acid (final concentration 0.5 mM) was added. Cells were harvested by centrifugation at 5000 rpm and 4°C and the pellet was lysed using a bacterial cell lysis buffer (B-PER - Themo Fisher, Waltham, MA). After centrifugation, the supernatant was collected, and the protein was purified by one-step purification using HisPur™ Ni-NTA Spin Columns (Thermo Scientific, Catalog # 88226) and standard protocols known in the art. […]
Reactions with alpha-dioxygenases were performed as follows. […] The reaction was incubated for up to 10 minutes at 37°C with 200 rpm agitation and the conversion was monitored using an oxygen sensor. The TON (in s-1) were calculated as the ratio between the initial rate of oxygen consumption (in µM/s) and the concentration of enzyme (in µM). […]

[2] = target: T1, Arabidopsis thaliana αDOX (SEQ ID NO: 3), fatty acid alpha-dioxygenase, Q9SGH6, variant with N-terminal His-tag, MBP tag and TEV site SEQ ID NO: 253 (Arabidopsis thaliana, UniProt Q9SGH6); assay: as above; type: biochemical; settings: fatty acid 100 µM, enzyme 6 ppm, 50 mM HEPES pH 9.0, 37°C; initial rate of oxygen consumption / enzyme concentration
T1 construct: His-tag (N); MBP tag (N); TEV protease cleavage site (N); made in house; host or cells: Escherichia coli BL21 (DE3), modified pET28a
T1 sequence (Q9SGH6 1-639): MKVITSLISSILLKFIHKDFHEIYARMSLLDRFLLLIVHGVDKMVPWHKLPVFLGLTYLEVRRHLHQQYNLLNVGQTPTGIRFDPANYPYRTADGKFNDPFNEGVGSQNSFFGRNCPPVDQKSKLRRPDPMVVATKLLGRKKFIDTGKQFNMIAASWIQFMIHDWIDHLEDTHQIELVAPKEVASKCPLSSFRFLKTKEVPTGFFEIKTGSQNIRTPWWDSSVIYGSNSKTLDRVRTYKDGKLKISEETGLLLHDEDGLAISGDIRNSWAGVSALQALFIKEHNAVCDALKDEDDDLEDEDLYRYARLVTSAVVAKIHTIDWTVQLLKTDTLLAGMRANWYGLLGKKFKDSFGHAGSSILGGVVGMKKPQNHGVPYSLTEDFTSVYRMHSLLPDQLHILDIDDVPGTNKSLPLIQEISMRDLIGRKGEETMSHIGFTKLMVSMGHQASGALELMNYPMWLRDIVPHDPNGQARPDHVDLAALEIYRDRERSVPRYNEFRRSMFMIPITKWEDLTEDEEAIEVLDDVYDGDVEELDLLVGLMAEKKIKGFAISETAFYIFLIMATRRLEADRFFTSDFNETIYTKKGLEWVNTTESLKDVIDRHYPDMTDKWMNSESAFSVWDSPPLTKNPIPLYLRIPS
Excerpt: Arabidopsis thaliana αDOX (SEQ ID NO: 3) is a fatty acid alpha-dioxygenase that converts fatty acids into the corresponding 2-hydroperoxy fatty acids and is included as an example of the present invention. A codon optimized gene (SEQ ID NO: 252) encoding for an alpha-dioxygenase variant was designed and synthesized by Genscript. After synthesis, the gene was cloned into a modified version of pET28a, such as the final plasmid encoded for a αDOX variant including an N-terminal amino acid sequence containing a His-tag, an MBP tag, and a TEV protease cleavage site (SEQ ID NO: 253). For heterologous expression, Escherichia coli BL21 (DE3) cells were transformed with the recombinant plasmid and a single colony was inoculated into LB medium containing kanamycin (50 mg/L). A pre-starter culture was then inoculated into flasks containing TB Media supplemented with kanamycin (50 mg/L) and incubated at 37 °C. At an OD600nm about 4, IPTG (final concentration 0.1 mM) and 5-aminolevulinic acid (final concentration 0.5 mM) were added to the culture and further incubated at 16 °C for 16 h. Cells were harvested by centrifugation and the pellet was lysed. After centrifugation, the supernatant was collected, and the protein was purified by one-step purification using Ni-NTA affinity chromatography and standard protocols known in the art. The protein was stored in 1×PBS buffer containing 10% Glycerol and at pH 7.4. The purified enzyme was stored at -80 °C until use.
Reactions with alpha-dioxygenases were performed as follows. An aliquot of fatty acid in ethanol (final concentration 100 µM) was resuspended in buffer (50 mM HEPES at pH 9.0) in a scintillation vial. The reaction was started by addition of enzyme (final concentration 6 ppm). The reaction was incubated for up to 10 minutes at 37°C with 200 rpm agitation and the conversion was monitored using an oxygen sensor. The TON (in s-1) were calculated as the ratio between the initial rate of oxygen consumption (in µM/s) and the concentration of enzyme (in µM). […]

## CCCCCCCC/C=C\CCCCCCCC(=O)O [Oleic Acid]
[1]
  Oleic Acid, TON: 0.00 s⁻¹
[2]
  Oleic Acid, TON: 0.14 s⁻¹

## CCCCCCCCCCCCCCCC(=O)O [Palmitic Acid]
[1]
  Palmitic Acid, TON: 0.00 s⁻¹
[2]
  Palmitic Acid, TON: 1.01 s⁻¹

## CCCCCCCCCCCCCCCCCC(=O)O [Stearic Acid]
[1]
  Stearic Acid, TON: 0.10 s⁻¹
[2]
  Stearic Acid, TON: 0.47 s⁻¹
